Values of other authors as cited in patent US20070117750A1, “METHOD FOR ENHANCED OCULAR DRUG PENETRATION” (priority 2005, published 2007).

What was measured:
[1] = topical instillation
[2] = topical ocular dose of 225 μg

| peak concentration time, aqueous humor [1] [min] | peak concentration time, iris ciliary/body ([1]; or first time interval that can be measured) [min] | systemic bioavailability [2] [%] | SMILES |
| --- | --- | --- | --- |
| 15 | 2 | – | Clc1cccc(Cl)c1N=C1NCCN1 [clonidine] |
| – | – | 74 | CC(C(=O)O)c1ccc(-c2ccccc2)c(F)c1 (stereo not drawn) [flurbiprofen] |
